Experimental data reported in paper PMC8445441, “Elucidating the mechanism by which synthetic helper peptides sensitize Pseudomonas aeruginosa to multiple antibiotics” (PLoS Pathogens, 2021).
Where two headings read alike, the source gives them in different places.

Key:
P. aeruginosa HM-214 = conditions: strain HM-214; antibiotic + D-11 (MICb/MICbc 128/4)
Summary of the method: (§1)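 MICs were determined by CLSI broth microdilution in MHB, in triplicate: two-fold drug dilutions were mixed 1:1 with bacterial suspension of ~1 × 10^6 CFU/mL and incubated 18 h at 37 °C. The MIC was the lowest concentration with no visible growth.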

P. aeruginosa AUMC-Pa-2 = conditions: strain AUMC-Pa-2; antibiotic + D-11 (MICb/MICbc 64/4)
Summary of the method: as §1

P. aeruginosa AUMC-Pa-1 = conditions: strain AUMC-Pa-1; antibiotic + D-11 (MICb/MICbc 128/4)
Summary of the method: as §1

[1] = test system: clinical P. aeruginosa isolates; experiment: microbe, parasite or virus in culture; conditions: Pseudomonas aeruginosa, 18 h, antibiotic alone
Summary of the method: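 Broth microdilution per CLSI in MHB, two-fold drug dilutions mixed with an equal volume of bacteria at about 1 × 10^6 CFU/mL. After 18 h at 37 °C, MIC taken as the lowest concentration with no visible growth; run in triplicate.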

P. aeruginosa NR-31040 = experiment: microbe, parasite or virus in culture; parameters: MICa: MIC of the antibiotic / MICac: MIC of the antibiotic in the combination: unit not given beside the values; conditions: strain NR-31040
Summary of the method: as §1

P. aeruginosa NR-31041 = experiment: microbe, parasite or virus in culture; parameters: MICa: MIC of the antibiotic / MICac: MIC of the antibiotic in the combination: unit not given beside the values
Summary of the method: as §1

P. aeruginosa PA14 = experiment: microbe, parasite or virus in culture; parameters: MICa: MIC of the antibiotic / MICac: MIC of the antibiotic in the combination: unit not given beside the values
Summary of the method: as §1

P. aeruginosa PAK = experiment: microbe, parasite or virus in culture; parameters: MICa: MIC of the antibiotic / MICac: MIC of the antibiotic in the combination: unit not given beside the values
Summary of the method: as §1

P. aeruginosa ATCC27853 = experiment: microbe, parasite or virus in culture; parameters: MICa: MIC of the antibiotic / MICac: MIC of the antibiotic in the combination: unit not given beside the values
Summary of the method: as §1

P. aeruginosa AUMC-Pa-3 = experiment: microbe, parasite or virus in culture
Summary of the method: as §1

P. aeruginosa AUMC-Pa-4 = experiment: microbe, parasite or virus in culture; conditions: strain AUMC-Pa-4
Summary of the method: as §1

P. aeruginosa AUMC-Pa-5 = experiment: microbe, parasite or virus in culture; conditions: strain AUMC-Pa-5
Summary of the method: as §1

P. aeruginosa PAO1 = experiment: microbe, parasite or virus in culture; conditions: PAO1
Summary of the method: as §1

P. aeruginosa AUMC-Pa-6 = experiment: microbe, parasite or virus in culture; conditions: strain AUMC-Pa-6
Summary of the method: as §1

[2] = antibiotic + D-11 (MICb/MICbc 128/4)
[3] = antibiotic alone, unit not given
[4] = with D-11 at MICbc 4, unit not given
[5] = antibiotic + D-11 (MICb/MICbc 64/4)

MIC ([1]; read-out: Antibiotic sensibility (MIC) of clinical P. aeruginosa isolate AUMC-Pa-1, strain AUMC-Pa-1): 32 µM
MIC ([1]; read-out: Antibiotic sensibility (MIC) of clinical P. aeruginosa isolate AUMC-Pa-2, strain AUMC-Pa-2): 8 µM
MIC ([1]; read-out: Antibiotic sensibility (MIC) of clinical P. aeruginosa isolate AUMC-Pa-3, strain AUMC-Pa-3): 16 µM
MIC ([1]; read-out: Antibiotic sensibility (MIC) of clinical P. aeruginosa isolate AUMC-Pa-4, strain AUMC-Pa-4): 16 µM
MIC ([1]; read-out: Antibiotic sensibility (MIC) of clinical P. aeruginosa isolate AUMC-Pa-5, strain AUMC-Pa-5): 32 µM
MIC ([1]; read-out: Antibiotic sensibility (MIC) of clinical P. aeruginosa isolate AUMC-Pa-6, strain AUMC-Pa-6): 16 µM
MIC ([1]; read-out: Antibiotic sensibility (MIC) of clinical P. aeruginosa isolate HM-214, strain HM-214): 32 µM
MIC ([1]; read-out: Antibiotic sensibility (MIC) of clinical P. aeruginosa isolate NR-31040, strain NR-31040): 32 µM
MIC ([1]; read-out: Antibiotic sensibility (MIC) of clinical P. aeruginosa isolate NR-31041, strain NR-31041): 32 µM
MICa: MIC of the antibiotic (P. aeruginosa NR-31040; [3]): 32
MICac: MIC of the antibiotic in the combination (P. aeruginosa NR-31040; [4]): 2
MIC (P. aeruginosa NR-31041; Pseudomonas aeruginosa, NR31041, 18 h, read-out: MICa: MIC of the antibiotic): 32 µM
MICac: MIC of the antibiotic in the combination (P. aeruginosa NR-31041; strain NR-31041, with D-11 at MICbc 4, unit not given): 0.25
MIC (P. aeruginosa PA14; Pseudomonas aeruginosa, PA14, 18 h, read-out: MICa: MIC of the antibiotic): > 128 µM
MICac: MIC of the antibiotic in the combination (P. aeruginosa PA14; strain PA14, with D-11 at MICbc 4, unit not given): 2
MIC (P. aeruginosa PAK; Pseudomonas aeruginosa, 18 h, read-out: MICa: MIC of the antibiotic): 16 µM
MICac: MIC of the antibiotic in the combination (P. aeruginosa PAK; strain PAK, with D-11 at MICbc 4, unit not given): 0.25
MIC (P. aeruginosa ATCC27853; Pseudomonas aeruginosa, ATCC27853, 18 h, read-out: MICa: MIC of the antibiotic): 16 µM
MICac: MIC of the antibiotic in the combination (P. aeruginosa ATCC27853; strain ATCC27853, with D-11 at MICbc 4, unit not given): 0.25
MIC (P. aeruginosa AUMC-Pa-3; Pseudomonas aeruginosa, AUMCPA3, 18 h, read-out: MICa: MIC of the antibiotic): 16 µM
MICac: MIC of the antibiotic in the combination (P. aeruginosa AUMC-Pa-3; strain AUMC-Pa-3, with D-11 at MICbc 4, unit not given): 0.063
MICa: MIC of the antibiotic (P. aeruginosa AUMC-Pa-4; [3]): 16
MICac: MIC of the antibiotic in the combination (P. aeruginosa AUMC-Pa-4; [4]): 1
MICa: MIC of the antibiotic (P. aeruginosa AUMC-Pa-5; [3]): 32
MICac: MIC of the antibiotic in the combination (P. aeruginosa AUMC-Pa-5; [4]): 8
MIC (P. aeruginosa PAO1; Pseudomonas aeruginosa, PAO1, 18 h, read-out: MICa: the MIC of antibiotics, S3 Table, antibiotic alone): 32 µM
MICac: the MIC for the antibiotic in the combination (P. aeruginosa PAO1; S3 Table, with 2 μM D-11): 0.0625 µM
MICac: the MIC for the antibiotic in the combination (P. aeruginosa PAO1; S3 Table, with 4 μM D-11): 0.03125 µM
MICa: the MIC of antibiotics (P. aeruginosa PAO1; S3 Table, antibiotic alone): 32 µM
MICa: MIC of the antibiotic (P. aeruginosa AUMC-Pa-6; [3]): 16
MICac: MIC of the antibiotic in the combination (P. aeruginosa AUMC-Pa-6; [4]): 4
Structure (SMILES): CO[C@H]1/C=C/O[C@@]2(C)Oc3c(C)c(O)c4c(c3C2=O)C2=NC3(CCN(CC(C)C)CC3)NC2=C(NC(=O)/C(C)=C\C=C\[C@H](C)[C@H](O)[C@@H](C)[C@@H](O)[C@@H](C)[C@H](OC(C)=O)[C@@H]1C)C4=O [Rifabutin]
FICI (P. aeruginosa HM-214): 0.039
FICI (P. aeruginosa AUMC-Pa-2): 0.070
FICI (P. aeruginosa AUMC-Pa-1): 0.039
FICI (P. aeruginosa NR-31040; [2]): 0.094
FICI (P. aeruginosa NR-31041; strain NR-31041, antibiotic + D-11 (MICb/MICbc 64/4)): 0.070
FICI (P. aeruginosa PA14; strain PA14, antibiotic + D-11 (MICb/MICbc 128/4)): 0.039
FICI (P. aeruginosa PAK; strain PAK, antibiotic + D-11 (MICb/MICbc 64/4)): 0.078
FICI (P. aeruginosa ATCC27853; strain ATCC27853, antibiotic + D-11 (MICb/MICbc 32/4)): 0.133
FICI (P. aeruginosa AUMC-Pa-3; strain AUMC-Pa-3, antibiotic + D-11 (MICb/MICbc 128/4)): 0.035
FICI (P. aeruginosa AUMC-Pa-4; [2]): 0.094
FICI (P. aeruginosa AUMC-Pa-5; [5]): 0.313
FICI (P. aeruginosa PAO1; S3 Table, antibiotic + 2 μM D-11): 0.064
FICI (P. aeruginosa PAO1; S3 Table, antibiotic + 4 μM D-11): 0.126
FICI (P. aeruginosa AUMC-Pa-6; [5]): 0.313
